One compound from patent publication US8618080B2, “Immunomodulatory compounds and treatment of diseases related to an overproduction of inflammatory cytokines” (OM Pharma, priority 2006, dated 2013) can be followed below.

Series [1] deals with LACK-sensitized and challenged mice. In words: LACK-induced allergic asthma model, therapeutic i.p. treatment. In kind it is in vivo. Here is the method: The main differences compared to the previous (part a) protocol are: • Mice were treated with OM-197-MP-AC i.p. only on days 15, 17 and 19 (i.e. at least 1 week after the second sensitization) at the dose of 1 mg/Kg (20 μg per mouse). • The lung cytokines measured by multiplex analysis using FACSArray were IL-4, IL-5, IL-13, IFN-γ, and IL-10. Results: Total Cell Number and Eosinophils in BAL:
Two days after the last aerosol, mice were sacrificed and BAL cells harvested.
In order to further characterize the immune status of mice after therapeutic treatment with OM-197-MP-AC, we analyzed LACK-specific IgE in sera of treated mice and in those of untreated mice by ELISA. Whereas LACK-specific IgE levels increased 7-fold upon exposition to LACK aerosols, sera of OM-197-MP-AC-treated mice contained 2-fold less (p<0.05) LACK-specific IgE compared to untreated LACK challenged mice.
FIG. 8: Mice were therapeutically treated three times as described in the method section, lavages were performed in individual mice bled with a canula inserted into their trachea. Lungs were washed 3 times with 1 ml of warmed PBS. Cells were washed with PBS, resuspended in 300 μl, and counted using a Burker-Türk chamber. For differential BAL cell counts, cytospin preparations were made and stained with Wright/Giemsa coloration. The groups tested were: LACK-sensitized and PBS-challenged wt mice (Control), LACK-sensitized and challenged wt mice (Asthma), and OM-197-MP-AC-treated wt mice (OM-197). The total cell number in BAL was determined by microscopic examination of cytospin preparations stained with Wright/Giemsa coloration. The dotted line indicates throughout the graph the value obtained in untreated asthmatic animals.
FIG. 9: Percentage of eosinophils in BAL analyzed by microscopic examination of cytospin preparations stained with Wright/Giemsa coloration. Mice were therapeutically treated three times as described in the method section, cells from BAL were harvested as explained in FIG. 8. The (therapeutic) groups studied are the same as those used in FIG. 8. The dotted line indicates throughout the graph the value obtained in untreated asthmatic animals.
FIG. 10: To analyze lung cytokine contents, lungs were harvested and left lungs were used to prepare protein extracts. 400 μl were recovered for each left lung. Cytokines were measured by multiplex analysis using FACSArray, and results are given in pg/ml. The (therapeutic) groups studied are the same as those used in FIGS. 8 and 9. The dotted lines indicate throughout the graphs the values obtained in untreated asthmatic animals.

The test system of series [2] is LACK-sensitised and -challenged BALB/c ByJ mice. Briefly: LACK-induced allergic asthma model, other routes of administration. In kind it is in vivo. As to the method: 43 females BALB/c ByJ mice 6-week old were purchased from the Centre d'Elevage Janvier (CERJ, Le Genest-St-Isle, France). All the mice were sensitised by 2 i.p. injections of 10 μg LACK protein precipitated in 2 mg of Alum (PerBio Science France SAS, Brebières, France) at days 1 and 8 (Julia et al., 2002).
OM-197-MP-AC was given from day 0 to day 12 as described below. All the mice were challenged from day 16 to day 20 with either a solution of LACK (0.15%) or with PBS as indicated below.
Experimental groups were the following: • Group A: untreated, LACK-sensitised and PBS-challenged mice (3 mice) • Group B: untreated LACK-sensitised and -challenged mice (7 mice) • Group C: i.p. OM-197-MP-AC-treated, LACK-sensitised and -challenged mice (5 mice) • Group D: i.g. OM-197-MP-AC-treated, LACK-sensitised and -challenged mice (7 mice) • Group E: s.c. OM-197-MP-AC-treated, LACK-sensitised and -challenged mice (7 mice). • Group F: i.n. OM-197-MP-AC-treated, LACK-sensitised and -challenged mice (7 mice) • Group G: aerosols OM-197-MP-AC-treated, LACK-sensitised and -challenged mice (7 mice)
Mice of groups C, D, E, and G were treated on days: 0, 2, 3, 4, 7, 9, 10, 11, whereas mice of group F (intranasal route) were only treated on days 0, 4, 7, and 11.
Mice of groups C and E were treated i.p. and s.c. respectively with 1 mg/Kg (20 μg per mouse) of OM-197-MP-AC.
Mice of group D were treated intragastrically with 50 mg/Kg (1 mg per mouse) of OM-197-MP-AC.
Mice of group F were treated i.n. with 20[…]μg of OM-197-MP-AC in a volume of 20 μl (OM-197-MP-AC at 2 mg/ml, 10[…]μl/nostril.)
Mice of group G received aerosols of a solution of OM-197-MP-AC at 0.2% (2 mg/ml) for 10 minutes.
All the mice were bled by heart puncture 2 days after the last aerosol. Total IgE were quantified by ELISA using rat EM-95 anti-IgE mAbs as coating antibody and rat anti-IgE mAbs coupled to biotin as second antibody as described elsewhere (Julia et al., 2002).
Individual mice were bled and a canula was inserted into their trachea. Lungs were washed 3 times with 1 ml of warmed PBS. Cells were washed with PBS, resuspended in 300 μl, and counted using a Burker-Türk chamber. For differential BAL cell counts, cytospin preparations were made and stained with Wright/Giemsa.

Series [3] relates to Limulus Amoebocyte Lysate. Briefly: Limulus Amoebocyte Lysate chromogenic test (LAL endotoxicity). The format is biochemical. Here is the method: Endotoxicity was determined first for OM-197-MP-AC and for OM-294-DP by the Limulus Amoebocyte Lysate chromogenic test (Chromogenic-LAL of Bio-Whittaker, kit n° 50-65OU).
The enzymatic reaction is carried out at 37° C. and the formation of the chromogen over time is measured at 405 nm. The time necessary to reach 0.2 units of D.O. is recorded and the endotoxic activity calculated in relation to a LPS standard (standard curve). The results are expressed in EU (Endotoxin Unit) in relation to a standardized preparation of E. coli LPS (1 EU corresponds to 0.08 ng equivalent LPS).

Where [4] appears, read: 1 mg/Kg i.p. therapeutic, versus untreated mice.

As to `CCCCCCCCCCCC(=O)O[C@H](CCCCCCCCCCC)CC(=O)N[C@@H](CCOP(=O)(O)O)C(=O)NCCC[C@H](COC(=O)CCCCCN)NC(=O)C[C@H](O)CCCCCCCCCCC` [OM-197-MP-AC, (3S, 9R)-3-[(R)-3-dodecanoyloxytetradecanoylamino]-4-oxo-5-aza-9-[(R)-3-hydroxytetradecanoylamino]-decan-1, 10-diol 1-dihydrogenophosphate 10-(6-aminohexanoate)], in series [1] (1 mg/Kg i.p. on days 15, 17, 19 (therapeutic)), the “Eosinophils in BAL, less than untreated mice” value is recorded as 40-45 fold less. Also, the “BAL cell recruitment impaired” value in series [1] (1 mg/Kg i.p. on days 15, 17, 19 (therapeutic), versus untreated mice) is reported as 90%. Moreover, in series [1] (1 mg/Kg i.p. therapeutic), the “Lung IFN-γ levels, treated versus untreated mice” value was “reduced” and the “Lung IL-10 amounts upon treatment” value is on record as “not significantly increased”. Moreover, in series [1] (1 mg/Kg i.p. therapeutic, ELISA), the “LACK-specific IgE in sera, less than untreated LACK challenged mice” value came out at 2 fold less. For the same compound, in series [1] (setting [4]), the “Lung IL-4 levels reduced” value was 90%, the “Lung IL-5 amounts reduced” value was 70% and the “Lung IL-13 amounts reduced” value came to 85%. Further, the “Eosinophils in BAL” value in series [2] (aerosols of 0.2% solution, 10 minutes) is given as “same tendency as i.n. treated animals”. In addition, in series [2] (i.g. 50 mg/Kg, unformulated), the “BAL cell contents versus untreated mice” value was “did not yield differences”. For the same compound, in series [2] (i.n. 20 μg per mouse), the “Eosinophil frequencies and numbers in BAL” value is on record as “reduced by half”; the “Total serum IgE” value is “reduced titers”. Further, in series [2] (i.p. 1 mg/Kg), the “Eosinophils in BAL” value was “both reduced percentage and reduced numbers”; the “Total IgE” value is “reduced amounts”. In series [2] (s.c. 1 mg/Kg), the “BAL cell contents versus untreated mice” value was “did not yield differences”. For the same compound, in series [3], the “Limulus activity in the chromogenic LAL assay” value is listed as “very little or no Limulus activity”.
